PubChem BioAssay AID1963846 (Molecular Pharmacology Branch, DTP, NCI, 2024)

System: 454973-116-R2-J3-PDC complex spheroid viability
Test: Anticancer human tumor 454973-116-R2-J3-PDC patient-derived pancreatic carcinoma cell line growth inhibition [POLQ]
Conditions: for IC50: curve of first compound; for viability, T/C: stronger effect = lower value
Summary of the method: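 Complex spheroid viability model combining PDC tumour cells with endothelial (HUVEC) and MSC stromal cells. Novobiocin, ART-558 or RP6685 were tested singly and in combination with standard and investigational anticancer drugs. Each was titrated in half-log steps from near clinical Cmax, or from 10 microM where Cmax was unknown.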

[1] = second compound 0.0316 µM, first compound 0.0316 µM
[2] = second compound 0.0316 µM, first compound 0.1 µM
[3] = second compound 0.0316 µM, first compound 0.316 µM
[4] = second compound 0.0316 µM, first compound 1 µM
[5] = second compound 0.0316 µM, first compound 3.16 µM
[6] = second compound 0.0316 µM, first compound 10 µM
[7] = second compound 0.1 µM, first compound 0.0316 µM
[8] = second compound 0.1 µM, first compound 0.1 µM
[9] = second compound 0.1 µM, first compound 0.316 µM
[10] = second compound 0.1 µM, first compound 1 µM
[11] = second compound 0.1 µM, first compound 3.16 µM
[12] = second compound 0.1 µM, first compound 10 µM
[13] = second compound 0.316 µM, first compound 0.0316 µM
[14] = second compound 0.316 µM, first compound 0.1 µM
[15] = second compound 0.316 µM, first compound 0.316 µM
[16] = second compound 0.316 µM, first compound 1 µM
[17] = second compound 0.316 µM, first compound 3.16 µM
[18] = second compound 0.316 µM, first compound 10 µM
[19] = second compound 1 µM, first compound 0.0316 µM
[20] = second compound 1 µM, first compound 0.1 µM
[21] = second compound 1 µM, first compound 0.316 µM
[22] = second compound 1 µM, first compound 1 µM
[23] = second compound 1 µM, first compound 3.16 µM
[24] = second compound 1 µM, first compound 10 µM
[25] = second compound 3.16 µM, first compound 0.0316 µM
[26] = second compound 3.16 µM, first compound 0.1 µM
[27] = second compound 3.16 µM, first compound 0.316 µM
[28] = second compound 3.16 µM, first compound 1 µM
[29] = second compound 3.16 µM, first compound 3.16 µM
[30] = second compound 3.16 µM, first compound 10 µM
[31] = second compound 10 µM, first compound 0.0316 µM
[32] = second compound 10 µM, first compound 0.1 µM
[33] = second compound 10 µM, first compound 0.316 µM
[34] = second compound 10 µM, first compound 1 µM
[35] = second compound 10 µM, first compound 3.16 µM
[36] = second compound 10 µM, first compound 10 µM
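Further: spheroids exposed to drugs for seven days before measurement.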
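Wherever viability, T/C is given: percent viability relative to DMSO vehicle control wells taken as 100%.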

CC1COCCN1c1cc(-c2ccnn2C)c2ccnc(-c3ccn[nH]3)c2n1 (stereo not drawn) + Nc1ccc(C#CCN(C(=O)Cc2ncc(C(F)(F)F)cc2C(F)(F)F)c2ccc(F)cc2)nn1
IC50 (second compound 0.0316 µM): 0.126 µM
IC50 (second compound 0.1 µM): 0.117 µM
IC50 (second compound 0.316 µM): 0.119 µM
IC50 (second compound 1 µM): 0.109 µM
IC50 (second compound 3.16 µM): 0.119 µM
IC50 (second compound 10 µM): 0.09 µM
viability, T/C [1]: 83.6%
viability, T/C [2]: 57.6%
viability, T/C [3]: 19.8%
viability, T/C [4]: 11.3%
viability, T/C [5]: 14%
viability, T/C [6]: 14.1%
viability, T/C [7]: 80.3%
viability, T/C [8]: 54.6%
viability, T/C [9]: 20.1%
viability, T/C [10]: 13.5%
viability, T/C [11]: 11.2%
viability, T/C [12]: 14.6%
viability, T/C [13]: 91%
viability, T/C [14]: 55.6%
viability, T/C [15]: 19.1%
viability, T/C [16]: 9.76%
viability, T/C [17]: 12.6%
viability, T/C [18]: 14.6%
viability, T/C [19]: 90.2%
viability, T/C [20]: 52.7%
viability, T/C [21]: 16.8%
viability, T/C [22]: 11.3%
viability, T/C [23]: 13.6%
viability, T/C [24]: 14.5%
viability, T/C [25]: 88.7%
viability, T/C [26]: 55.6%
viability, T/C [27]: 18.2%
viability, T/C [28]: 11.3%
viability, T/C [29]: 9.64%
viability, T/C [30]: 11.8%
viability, T/C [31]: 92.5%
viability, T/C [32]: 45.7%
viability, T/C [33]: 17.5%
viability, T/C [34]: 10.5%
viability, T/C [35]: 10.2%
viability, T/C [36]: 13.4%

CC1COCCN1c1cc(C2(S(C)(=N)=O)CC2)nc(-c2ccnc3[nH]ccc23)n1 (stereo not drawn) + Nc1ccc(C#CCN(C(=O)Cc2ncc(C(F)(F)F)cc2C(F)(F)F)c2ccc(F)cc2)nn1
IC50 (second compound 0.0316 µM): 4.99 µM
IC50 (second compound 0.1 µM): 5.25 µM
IC50 (second compound 0.316 µM): 4.65 µM
IC50 (second compound 1 µM): 4.27 µM
IC50 (second compound 3.16 µM): 4.31 µM
IC50 (second compound 10 µM): 3.67 µM
viability, T/C [1]: 115%
viability, T/C [2]: 104%
viability, T/C [3]: 112%
viability, T/C [4]: 100%
viability, T/C [5]: 68%
viability, T/C [6]: 22.5%
viability, T/C [7]: 99.5%
viability, T/C [8]: 109%
viability, T/C [9]: 104%
viability, T/C [10]: 97.5%
viability, T/C [11]: 70.3%
viability, T/C [12]: 24.3%
viability, T/C [13]: 109%
viability, T/C [14]: 122%
viability, T/C [15]: 104%
viability, T/C [16]: 95.2%
viability, T/C [17]: 64.8%
viability, T/C [18]: 20.9%
viability, T/C [19]: 110%
viability, T/C [20]: 111%
viability, T/C [21]: 109%
viability, T/C [22]: 109%
viability, T/C [23]: 61.6%
viability, T/C [24]: 17.3%
viability, T/C [25]: 116%
viability, T/C [26]: 106%
viability, T/C [27]: 108%
viability, T/C [28]: 105%
viability, T/C [29]: 59.9%
viability, T/C [30]: 23.1%
viability, T/C [31]: 122%
viability, T/C [32]: 114%
viability, T/C [33]: 113%
viability, T/C [34]: 111%
viability, T/C [35]: 55%
viability, T/C [36]: 15.5%

CCCS(=O)(=O)Nc1ccc(F)c(C(=O)c2c[nH]c3ncc(-c4ccc(Cl)cc4)cc23)c1F + Nc1ccc(C#CCN(C(=O)Cc2ncc(C(F)(F)F)cc2C(F)(F)F)c2ccc(F)cc2)nn1
IC50 (second compound 0.0316 µM): 8.62 µM
IC50 (second compound 0.1 µM): 8.22 µM
IC50 (second compound 0.316 µM): 8.45 µM
IC50 (second compound 1 µM): 8.62 µM
IC50 (second compound 3.16 µM): 8.46 µM
IC50 (second compound 10 µM): 7.56 µM
viability, T/C [1]: 106%
viability, T/C [2]: 109%
viability, T/C [3]: 117%
viability, T/C [4]: 114%
viability, T/C [5]: 114%
viability, T/C [6]: 40.7%
viability, T/C [7]: 104%
viability, T/C [8]: 109%
viability, T/C [9]: 108%
viability, T/C [10]: 115%
viability, T/C [11]: 113%
viability, T/C [12]: 37.6%
viability, T/C [13]: 106%
viability, T/C [14]: 109%
viability, T/C [15]: 110%
viability, T/C [16]: 114%
viability, T/C [17]: 120%
viability, T/C [18]: 39.5%
viability, T/C [19]: 112%
viability, T/C [20]: 116%
viability, T/C [21]: 116%
viability, T/C [22]: 117%
viability, T/C [23]: 114%
viability, T/C [24]: 40.4%
viability, T/C [25]: 116%
viability, T/C [26]: 118%
viability, T/C [27]: 112%
viability, T/C [28]: 115%
viability, T/C [29]: 113%
viability, T/C [30]: 39.3%
viability, T/C [31]: 133%
viability, T/C [32]: 116%
viability, T/C [33]: 117%
viability, T/C [34]: 116%
viability, T/C [35]: 116%
viability, T/C [36]: 28.9%

CNCc1ccc(-c2[nH]c3cc(F)cc4c3c2CCNC4=O)cc1 + Nc1ccc(C#CCN(C(=O)Cc2ncc(C(F)(F)F)cc2C(F)(F)F)c2ccc(F)cc2)nn1
IC50 (second compound 0.0316 µM): > 10 µM
IC50 (second compound 0.1 µM): > 10 µM
IC50 (second compound 0.316 µM): > 10 µM
IC50 (second compound 1 µM): > 10 µM
IC50 (second compound 3.16 µM): > 10 µM
IC50 (second compound 10 µM): > 10 µM
viability, T/C [1]: 114%
viability, T/C [2]: 101%
viability, T/C [3]: 109%
viability, T/C [4]: 94.5%
viability, T/C [5]: 104%
viability, T/C [6]: 91.9%
viability, T/C [7]: 103%
viability, T/C [8]: 96.2%
viability, T/C [9]: 95.8%
viability, T/C [10]: 90.3%
viability, T/C [11]: 98.2%
viability, T/C [12]: 95.4%
viability, T/C [13]: 105%
viability, T/C [14]: 100%
viability, T/C [15]: 105%
viability, T/C [16]: 95.6%
viability, T/C [17]: 101%
viability, T/C [18]: 95.9%
viability, T/C [19]: 110%
viability, T/C [20]: 106%
viability, T/C [21]: 106%
viability, T/C [22]: 108%
viability, T/C [23]: 110%
viability, T/C [24]: 91%
viability, T/C [25]: 113%
viability, T/C [26]: 115%
viability, T/C [27]: 108%
viability, T/C [28]: 98.7%
viability, T/C [29]: 121%
viability, T/C [30]: 90.6%
viability, T/C [31]: 116%
viability, T/C [32]: 102%
viability, T/C [33]: 112%
viability, T/C [34]: 117%
viability, T/C [35]: 119%
viability, T/C [36]: 85%
